Experimental data: patent US4510136A (priority 1983, dated 1985)

How the values were obtained:
[1] = test system: Puccinia recondita var. tritici; assay: Wheat leaf rust control on sprayed wheat seedlings (Example 79); type: in vivo; settings: Puccinia recondita, 168 h; 100 ppm spray, day before inoculation
Summary of the method: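 Disease was scored as leaf rust pustules 7 days after a 24 h, 20° saturated-humidity incubation of seedlings inoculated with P. recondita var. tritici spores. Inoculation followed by one day a run-off spray of 100 ppm compound in water containing 6% acetone and 250 ppm TREM 014.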

Erysiphe cichoracearum = assay: Cucumber powdery mildew control on sprayed cucumber seedlings (Example 80); type: in vivo; settings: Golovinomyces cichoracearum, 168 h, 100 ppm spray, day before inoculation
Venturia inaequalis = assay: Apple scab control on sprayed apple seedlings (Example 82); type: in vivo; settings: Venturia inaequalis; for pest or weed control at 100 ppm: 100 ppm spray, day before inoculation
Helminthosporium maydis = assay: Southern corn leaf blight control on sprayed corn seedlings (Example 83); type: in vivo; settings: Bipolaris maydis, 192 h, 100 ppm spray, day before inoculation
Summary of the method: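 Corn seedlings were sprayed to run-off with 100 ppm suspensions (6% acetone, 250 ppm TREM 014) and spore-inoculated the following day. Disease and growth reduction were rated after 24 h saturated humidity at 20° plus 7 days in a growth room.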

Cercospora arachidicola = assay: Peanut early leafspot control on sprayed peanut seedlings (Example 84); type: in vivo; settings: Mycosphaerella arachidis, 360 h, read-out: % Control Peanut Easly Leafspot; for pest or weed control at 100 ppm: 100 ppm spray, day before inoculation
Rhizoctonia solani = assay: Rice sheath blight control on sprayed rice seedlings (Example 87); type: in vivo; settings: Rhizoctonia solani, 168 h, 100 ppm spray, day before inoculation
Summary of the method: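 Disease ratings followed 7 days' growth-room incubation of seedlings given a bran/R. solani mycelium inoculum. Inoculation took place one day after spraying to run-off. The spray was a 100 ppm compound suspension in water containing 6% acetone and 250 ppm TREM 014.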

Pyricularia oryzae = assay: whole plant or invertebrate; type: in vivo; settings: Pyricularia oryzae, 168 h, read-out: % Control of Rice Blast, 100 ppm spray, day before inoculation
Phytophthora infestans = assay: whole plant or invertebrate; type: in vivo; settings: Phytophthora infestans, in Solanum lycopersicum, 168 h, read-out: % Control of Tomato Late Blight, 100 ppm spray, day before inoculation
cucumber seedlings = assay: Phytotoxicity on cucumber seedlings (Example 80); type: in vivo; set-up: key: G = growth reduction; H = hormonal effects; settings: 100 ppm spray
Procedure: The compounds of the previous example were again dissolved in acetone in an amount equal to 6% of the final volume and then suspended at a concentration of 100 ppm in purified water containing 250 ppm of the surfactant TREM 014 (polyhydric alcohol esters). These suspensions were sprayed to the point of run-off, on cucumber seedlings. The following day, the plants were inoculated with a spore suspension of the fungus Erysiphe cichoracearum, causal agent of cucumber powdery mildew, and incubated in a growth room for 7 days. Disease ratings were then made. Treated plants from successful treatments had little or no powdery mildew in contrast to untreated plants which were covered with powdery mildew. Phytotoxicity in the form of growth reduction or hormonal effects was observed on some of the plants in association with disease control.

apple seedlings = assay: Phytotoxicity on apple seedlings (Example 82); type: in vivo; set-up: key: G = growth reduction; H = hormonal effects
Procedure: These suspensions were sprayed to the point of run-off on apple seedlings. The following day, the plants were inoculated with a spore suspension of the fungus Venturia inaequalis, causal agent of apple scab, and incubated in a saturated humidity chamber at 20° for 24 hours and then in a growth room for an additional 10-12 days. Treated plants from successful treatments had fewer apple scab lesions when compared to untreated plants which were covered with scab lesions. Phytotoxicity expressed as growth reduction was observed on some of the plants in association with disease control.

Erysiphe graminis = assay: Barley powdery mildew control on sprayed barley seedlings (Example 81); type: in vivo; settings: Blumeria graminis, 168 h; 100 ppm spray, day before inoculation
Procedure: The compounds of the previous examples were again dissolved in acetone in an amount equal to 6% of the final volume and then suspended at a concentration of 100 ppm in purified water containing 250 ppm of the surfactant TREM 014 (polyhydric alcohol esters). These suspensions were sprayed to the point of run-off on barley seedlings. The following day, the plants were inoculated with a spore suspension of the fungus Erysiphe graminis, causal agent of barley powdery mildew, and incubated in growth room for 7 days. Disease ratings were then made. Treated plants from successful treatments had little or no powdery mildew in contrast to untreated plants which were covered with powdery mildew.

5 Phytophthora species = type: cell-based; settings: 200.0 ppm in V-8 agar, 22° C., 6 days
Pythium aphanadermatum [2] = assay: Pythium control on corn, seed coating (Example 92); type: in vivo; settings: 504 h, 2 gm/kg seed
Procedure: Several compounds of the previous examples were incorporated into a proprietary formulation and used to coat corn seeds at a rate of 2 gm/kg seed. After being thoroughly coated, the seeds were allowed to air dry at room temperature. The seeds were then planted into soil amended with a mixture of the fungus Pythium aphanadermatum, sand, and corn meal at a rate sufficient to kill most untreated seeds. The seeds were held at 49° F. for 2 weeks and then at 70° F. for 1 additional week. After this time disease ratings were made.

Monilinia fructicola = assay: Stone fruit brown rot control on dipped canned peach halves (Example 86); settings: 120 h, 100 ppm dip, percent growth inhibition of colonies after five days
Text: Several compounds of the previous examples were again dissolved in acetone in an amount equal to 5% of the final volume and then suspended at a concentration of 100 ppm in purified water containing 700 ppm of the surfactant TREM 014 (polyhydric alcohol esters). Canned peach halves were dipped in this suspension for three minutes and then placed to air dry in sterile containers. Upon drying, the peach halves were inoculated with two pieces of Monilinia fructicola mycelium, causal agent of stone fruit brown rot, and incubated in the sterile containers for five days. At that time the radii of the colonies' growth were measured on each peach. […] Percent disease control (percent growth inhibition of colonies on treated peaches as compared to that of colonies on untreated peaches) is expressed in the table below.

Pythium aphanadermatum [3] = assay: Pythium control on cotton, seed coating (Example 91); type: in vivo; settings: 168 h; for pest or weed control at 2 g/kg seed: 2 gm/kg seed
Text: Several compounds of the previous examples were incorporated into a proprietary formulation and used to coat cotton seeds at a rate of 2 gm/kg seed. After being thoroughly coated, the seeds were allowed to air dry at room temperature. The cotton seeds were then planted into soil amended with the fungus Pythium aphanadermatum, sand, and corn meal at a rate sufficient to kill most untreated seeds. The seeds were held at room temperature for 1 week, after which time disease ratings were made.

Compound: C[Si](Cn1cncn1)(c1ccccc1)c1ccc(Cl)cc1Cl (centres unmarked) [(2,4-Dichlorophenyl)methyl(phenyl)(1H-1,2,4-triazol-1-ylmethyl)silane]
- pest or weed control at 100 ppm [1]: 100%
- pest or weed control at 100 ppm (Erysiphe cichoracearum): 100%
- pest or weed control at 100 ppm (Venturia inaequalis): 100%
- pest or weed control at 100 ppm (Helminthosporium maydis): 0%
- pest or weed control at 100 ppm (Cercospora arachidicola): 100%
- pest or weed control at 100 ppm (Rhizoctonia solani): 0%
- pest or weed control at 100 ppm (Pyricularia oryzae): 0%
- pest or weed control at 100 ppm (Phytophthora infestans): 0%
- Phytotoxicity on cucumber (cucumber seedlings): G
- Phytotoxicity on apple (apple seedlings; 100 ppm spray): G

Compound: C[Si](C)(Cn1cncn1)c1ccc(Cl)c(Cl)c1 [(3,4-Dichlorophenyl)dimethyl(1H-1,2,4-triazol-1-ylmethyl)silane]
- pest or weed control at 100 ppm [1]: 60%
- pest or weed control at 100 ppm (Erysiphe cichoracearum): 100%
- pest or weed control at 100 ppm (Erysiphe graminis): 100%
- pest or weed control at 100 ppm (Venturia inaequalis): 80%
- pest or weed control at 100 ppm (Helminthosporium maydis): 90%
- pest or weed control at 100 ppm (Cercospora arachidicola): 0%
- pest or weed control at 100 ppm (Rhizoctonia solani): 80%
- pest or weed control at 100 ppm (Pyricularia oryzae): 0%
- pest or weed control at 100 ppm (Phytophthora infestans): 0%
- No. of 5 Phytophthora species controlled in vitro (5 Phytophthora species): 2
- pest or weed control at 2 g/kg seed (Pythium aphanadermatum [2]): 43%

Compound: C[Si](C)(Cn1cncn1)c1ccc(Br)cc1 [(4-Bromophenyl)dimethyl(1H-1,2,4-triazol-1-ylmethyl)silane]
- pest or weed control at 100 ppm [1]: 80%
- pest or weed control at 100 ppm (Erysiphe cichoracearum): 100%
- pest or weed control at 100 ppm (Venturia inaequalis): 90%
- pest or weed control at 100 ppm (Helminthosporium maydis): 90%
- pest or weed control at 100 ppm (Cercospora arachidicola): 0%
- pest or weed control at 100 ppm (Pyricularia oryzae): 0%
- pest or weed control at 100 ppm (Phytophthora infestans): 0%
- Phytotoxicity on cucumber (cucumber seedlings): G
- Phytotoxicity on apple (apple seedlings; 100 ppm spray): G

Compound: CCCC[Si](C)(Cn1cncn1)c1ccc(Cl)cc1 (centres unmarked) [Butyl(4-chlorophenyl)methyl(1H-1,2,4-triazol-1-ylmethyl)silane]
- pest or weed control at 100 ppm [1]: 80%
- pest or weed control at 100 ppm (Erysiphe cichoracearum): 100%
- pest or weed control at 100 ppm (Erysiphe graminis): 90%
- pest or weed control at 100 ppm (Venturia inaequalis): 100%
- pest or weed control at 100 ppm (Helminthosporium maydis): 0%
- pest or weed control at 100 ppm (Cercospora arachidicola): 0%
- inhibition of growth at 100 µg/mL (Monilinia fructicola): 98%
- pest or weed control at 100 ppm (Rhizoctonia solani): 0%
- pest or weed control at 100 ppm (Pyricularia oryzae): 0%
- pest or weed control at 100 ppm (Phytophthora infestans): 0%
- Phytotoxicity on cucumber (cucumber seedlings): G
- Phytotoxicity on apple (apple seedlings; 100 ppm spray): G

Compound: CCCC[Si](C)(C)Cn1cncn1 [Butyldimethyl(1H-1,2,4-triazol-1-ylmethyl)silane]
- pest or weed control at 100 ppm [1]: 0%
- pest or weed control at 100 ppm (Erysiphe cichoracearum): 100%
- pest or weed control at 100 ppm (Venturia inaequalis): 0%
- pest or weed control at 100 ppm (Helminthosporium maydis): 0%
- pest or weed control at 100 ppm (Cercospora arachidicola): 0%
- inhibition of growth at 100 µg/mL (Monilinia fructicola): 95%
- pest or weed control at 100 ppm (Pyricularia oryzae): 0%
- pest or weed control at 100 ppm (Phytophthora infestans): 0%
- No. of 5 Phytophthora species controlled in vitro (5 Phytophthora species): 1
- pest or weed control at 2 g/kg seed (Pythium aphanadermatum [3]): 0%
- pest or weed control at 2 g/kg seed (Pythium aphanadermatum [2]): 0%

Compound: C[Si](C)(Cn1cncn1)c1cccc2ccccc12 [Dimethyl(1-naphthalenyl)(1H-1,2,4-triazol-1-ylmethyl)silane]
- pest or weed control at 100 ppm [1]: 0%
- pest or weed control at 100 ppm (Erysiphe cichoracearum): 100%
- pest or weed control at 100 ppm (Erysiphe graminis): 0%
- pest or weed control at 100 ppm (Venturia inaequalis): 50%
- pest or weed control at 100 ppm (Helminthosporium maydis): 0%
- pest or weed control at 100 ppm (Cercospora arachidicola): 90%
- pest or weed control at 100 ppm (Rhizoctonia solani): 0%
- pest or weed control at 100 ppm (Pyricularia oryzae): 70%
- pest or weed control at 100 ppm (Phytophthora infestans): 0%
- pest or weed control at 2 g/kg seed (Pythium aphanadermatum [2]): 30%

Compound: C[Si](C)(Cn1cncn1)c1ccccc1C(F)(F)F [Dimethyl(1H-1,2,4-triazol-1-ylmethyl)(2-trifluoromethylphenyl)silane]
- pest or weed control at 100 ppm (Erysiphe cichoracearum): 100%
- pest or weed control at 100 ppm (Erysiphe graminis): 100%
- pest or weed control at 400 ppm (Venturia inaequalis; applied at 400 ppm): 65%
- pest or weed control at 100 ppm (Helminthosporium maydis): 0%
- pest or weed control at 400 ppm (Cercospora arachidicola; applied at 400 ppm): 25%
- Phytotoxicity on apple (apple seedlings; applied at 400 ppm): G

Compound: Cc1ccc([Si](C)(C)Cn2cncn2)cc1 [Dimethyl(4-methylphenyl)(1H-1,2,4-triazol-1-ylmethyl)silane]
- pest or weed control at 100 ppm [1]: 0%
- pest or weed control at 100 ppm (Erysiphe cichoracearum): 100%
- pest or weed control at 100 ppm (Venturia inaequalis): 50%
- pest or weed control at 100 ppm (Helminthosporium maydis): 0%
- pest or weed control at 100 ppm (Cercospora arachidicola): 0%
- pest or weed control at 100 ppm (Pyricularia oryzae): 0%
- pest or weed control at 100 ppm (Phytophthora infestans): 0%
- pest or weed control at 2 g/kg seed (Pythium aphanadermatum [3]): 0%
- pest or weed control at 2 g/kg seed (Pythium aphanadermatum [2]): 0%
- Phytotoxicity on cucumber (cucumber seedlings): G
- Phytotoxicity on apple (apple seedlings; 100 ppm spray): G

Compound: C[Si](C)(Cn1cncn1)c1ccc(Oc2ccccc2)cc1 [Dimethyl(4-phenoxyphenyl)(1H-1,2,4-triazol-1-ylmethyl)silane]
- pest or weed control at 100 ppm [1]: 0%
- pest or weed control at 100 ppm (Erysiphe cichoracearum): 70%
- pest or weed control at 100 ppm (Erysiphe graminis): 0%
- pest or weed control at 100 ppm (Venturia inaequalis): 100%
- pest or weed control at 100 ppm (Helminthosporium maydis): 0%
- pest or weed control at 100 ppm (Cercospora arachidicola): 0%
- pest or weed control at 100 ppm (Rhizoctonia solani): 0%
- pest or weed control at 100 ppm (Pyricularia oryzae): 0%
- pest or weed control at 100 ppm (Phytophthora infestans): 50%
- No. of 5 Phytophthora species controlled in vitro (5 Phytophthora species): 0
- pest or weed control at 0.5 g/kg seed (Pythium aphanadermatum [3]; 0.5 gm/kg seed): 18%
- pest or weed control at 2 g/kg seed (Pythium aphanadermatum [2]): 0%

Compound: C[Si](Cn1cncn1)(c1ccccc1)c1ccccc1 [Methyldiphenyl(1H-1,2,4-triazol-1-ylmethyl)silane]
- pest or weed control at 100 ppm [1]: 0%
- pest or weed control at 100 ppm (Erysiphe cichoracearum): 100%
- pest or weed control at 100 ppm (Erysiphe graminis): 100%
- pest or weed control at 100 ppm (Venturia inaequalis): 100%
- pest or weed control at 100 ppm (Helminthosporium maydis): 80%
- pest or weed control at 100 ppm (Cercospora arachidicola): 100%
- pest or weed control at 100 ppm (Rhizoctonia solani): 0%
- pest or weed control at 100 ppm (Pyricularia oryzae): 0%
- pest or weed control at 100 ppm (Phytophthora infestans): 0%
- pest or weed control at 2 g/kg seed (Pythium aphanadermatum [3]): 0%
- pest or weed control at 2 g/kg seed (Pythium aphanadermatum [2]): 0%
- Phytotoxicity on cucumber (cucumber seedlings): G

Compound: C[Si](C)(Cn1cncn1)c1ccc(Oc2ccc(Cl)cc2)cc1 [[4-(4-Chlorophenoxy)phenyl]dimethyl(1H-1,2,4-triazol-1-ylmethyl)silane]
- pest or weed control at 100 ppm [1]: 90%
- pest or weed control at 100 ppm (Erysiphe cichoracearum): 80%
- pest or weed control at 100 ppm (Venturia inaequalis): 100%
- pest or weed control at 100 ppm (Helminthosporium maydis): 50%
- pest or weed control at 100 ppm (Cercospora arachidicola): 0%
- pest or weed control at 100 ppm (Rhizoctonia solani): 0%
- pest or weed control at 100 ppm (Pyricularia oryzae): 0%
- pest or weed control at 100 ppm (Phytophthora infestans): 50%
- No. of 5 Phytophthora species controlled in vitro (5 Phytophthora species): 0
